Measurements as given in patent US8546371B2, “Nanoparticle formulated glycolipid antigens for immunotherapy” (Board of Regents, The University of Texas System, priority 2009, dated 2013).

Tested on: NKT cells
Assay: Repeated in vivo NKT cell stimulation, serum IFN-γ by ELISA
Parameters: species or system C57BL/6 mice
Settings: for IFN-γ (serum): 1 μg αGalCer i.v., bled 24 hours after treatment, mean ± SD of three mice
Method: Nanoparticle containing 1 μg alpha-galactosylceramide was injected to C57BL6 mice, with non-conjugated nanoparticles as negative control. In parallel, we studied soluble form of alpha-galactosylceramide.
C57/BL6 mice were purchased from the Jackson Laboratory (Bar Arbor, Me.) and housed in M.D. Anderson Cancer Center animal facilities under standard pathogen free conditions abiding institutional guidelines. 6 weeks old C57BL/6 mice were used for all experiments. 3 mice per group were used for each experiment. 1 μg alpha-galactosylceramide, or nanoparticle formulated alpha-galactosylceramide in 200 μL PBS was intravenously injected (through tail vein) to each mouse. Mice were treated every 10 days for 3 times. 200 μL of PBS/1% DMSO was used as control.
Mice were bled at 24 hours after each drug treatment. Serum IFN-γ was measured by ELISA using a kit from BD Biosciences (San Jose, Calif.).

## CCCCCCCCCCCCCCCCCCCCCCCCCC(=O)N[C@@H](CO[C@H]1O[C@H](CO)[C@H](O)[C@H](O)[C@H]1O)[C@H](O)[C@H](O)CCCCCCCCCCCCCC [αGalCer, Alpha-galactosylceramide]
3 treatments every 10 days, i.v.
  IFN-γ secretion upon repeated stimulation (anergy of NKT cells): caused IFN-γ secretion only at the first treatment and failed to induce upon subsequent stimulations
x1 injection
  IFN-γ (serum): 2601 ± 257 pg/mL
x2 injection (every 10 days)
  IFN-γ (serum): 65 ± 2 pg/mL
x3 injection (every 10 days)
  IFN-γ (serum): 40 ± 11 pg/mL
